Here are results for eleven molecules from US10273267B2, “Beta-hairpin peptidomimetics as selective elastase inhibitors” (POLYPHOR AG, priority 2013, dated 2019).

Common to all, as to type: biochemical
Assay [1] deals with T1, porcine pancreatic elastase (Sus scrofa, UniProt P00772).
T1 construct: purchased Sigma, USA
The assay can be described thus: Inhibition of porcine pancreatic elastase (hydrolysis of MeOSuc-AAA-pNA). To be noted: for hNE/PPE selectivity: ratio of PPE IC50 to hNE IC50; for IC50: substrate MeOSuc-AAA-pNA 1 mM, enzyme 15 nM, 37° C., pH8, read-out: Porcine pancreatic elastase (PPE) IC50. In short, it runs like this:
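Elastase (15 nM) incubated at 37 °C with 1 mM MeOSuc-AAA-pNA and serially diluted peptides (0.5% DMSO) in 50 mM Tris pH 8, 100 mM NaCl, 0.01% Tween20. pNA release read at 405 nm over 30 min; IC50 from 4-parameter Hill fit.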

Assay [2] deals with T2, human neutrophil elastase (Homo sapiens, UniProt P08246).
T2 construct: purchased Serva Electrophoresis, Germany
T2 sequence (P08246 30-267): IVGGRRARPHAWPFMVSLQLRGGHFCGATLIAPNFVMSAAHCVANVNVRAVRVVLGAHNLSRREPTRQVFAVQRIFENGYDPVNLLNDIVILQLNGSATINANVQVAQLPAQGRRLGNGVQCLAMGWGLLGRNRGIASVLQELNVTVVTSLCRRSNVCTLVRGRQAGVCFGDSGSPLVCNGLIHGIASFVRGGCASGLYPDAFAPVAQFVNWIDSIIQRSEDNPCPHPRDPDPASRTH
Description: Inhibition of human neutrophil elastase (hydrolysis of MeOSuc-AAPV-pNA). To be noted: substrate MeOSuc-AAPV-pNA 0.3 mM, enzyme 10 nM, 37° C., pH 8; read-out: Human neutrophil elastase (hNE) IC50. In short, it runs like this: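 MeOSuc-AAPV-pNA (0.3 mM) hydrolysis by 10 nM enzyme at 37° C with serially diluted peptides (1% DMSO) in 50 mM Tris pH 8, 300 mM NaCl, 0.01% Tween20. pNA release read at 405 nm over 30 minutes; IC50 from 4-parameter Hill fit.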

The target in assay [3] is T3, human proteinase 3 (Homo sapiens, UniProt P24158).
T3 construct: purchased Elastin Products Company, USA
T3 sequence (P24158 28-248): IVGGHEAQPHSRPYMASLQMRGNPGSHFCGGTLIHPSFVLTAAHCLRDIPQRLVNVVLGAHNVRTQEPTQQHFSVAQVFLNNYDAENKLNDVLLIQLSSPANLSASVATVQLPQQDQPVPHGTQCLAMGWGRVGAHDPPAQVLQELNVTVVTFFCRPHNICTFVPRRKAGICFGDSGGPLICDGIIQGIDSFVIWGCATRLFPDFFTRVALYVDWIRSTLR
Description: Inhibition of human proteinase 3 (substrate Boc-Ala-Ala-Nva-SBzl). To be noted: for hNE/hPr3 selectivity: ratio of hPr3 IC50 to hNE IC50; for IC50: substrate Boc-Ala-Ala-Nva-SBzl 1 mM, enzyme 10 nM, 37° C., pH7.4, read-out: Human proteinase 3 (hPr3) IC50. In short, it runs like this: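 Enzyme at 10 nM incubated at 37°C with 1 mM thiobenzyl ester substrate, 250 μM 4,4′-dithiodipyridine and serial peptide dilutions (0.5% DMSO) in Tris pH 7.4, 150 mM NaCl, 0.01% Tween20. Absorbance at 340 nm followed over 30 min; IC50 from 4-parameter Hill fit.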

What is called IC50 is the concentration that gives 50% inhibition.

Where a SMILES comes first, the peptide text is derived from it. [ ]: non-standard residue; d: D form. Oic = O=C(O)[C@@H]1C[C@@H]2CCCC[C@@H]2N1; Gly(octyl) = CCCCCCCC[C@H](N)C(=O)O; hTyr = N[C@@H](CCc1ccc(O)cc1)C(=O)O; β3hK = NCCCC[C@H](N)CC(=O)O; β3hP = O=C(O)C[C@@H]1CCCN1; hSer = N[C@@H](CCO)C(=O)O; Dab = NCC[C@H](N)C(=O)O

T1 sequence (P00772 27-266): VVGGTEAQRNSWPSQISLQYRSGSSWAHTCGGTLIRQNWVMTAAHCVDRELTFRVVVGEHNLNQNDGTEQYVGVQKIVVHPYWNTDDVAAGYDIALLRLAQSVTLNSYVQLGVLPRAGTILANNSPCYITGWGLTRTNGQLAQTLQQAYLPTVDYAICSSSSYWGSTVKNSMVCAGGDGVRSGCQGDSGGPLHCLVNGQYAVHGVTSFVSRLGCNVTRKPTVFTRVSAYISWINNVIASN

Turning to `CC[C@H](C)[C@@H]1NC(=O)[C@H](CO)NC(=O)[C@H](C)NC(=O)[C@H]([C@@H](C)O)NC(=O)[C@H](C(C)C)NC(=O)[C@H](CCCNC(=N)N)NC(=O)[C@H](CCC(=O)O)NC(=O)[C@H]2CCCN2C(=O)[C@H]([C@@H](C)O)NC(=O)[C@H](CCCCN)NC(=O)[C@H](CCC(N)=O)NC(=O)[C@@H]2C[C@@H]3CCCC[C@@H]3N2C(=O)[C@@H]2CCCN2C1=O` [Example 44, Cyclo(-Arg-Val-Thr-Ala-Ser-Ile-Pro-Oic-Gln-Lys-Thr-^DPro-Glu-)] (cyclo(RVTASIP[Oic]QKT[dP]E)), in assay [1], the hNE/PPE selectivity is recorded as over 10417 and the IC50 was over 100 µM. Also, the IC50 in assay [2] amounted to 0.0096 µM. Moreover, in assay [3], the hNE/hPr3 selectivity is recorded as over 10417 and the IC50 is over 100 µM.

As to `CCCCCCCC[C@@H]1NC(=O)[C@H](C(C)C)NC(=O)[C@@H](CO)NC(=O)[C@H]([C@@H](C)O)NC(=O)[C@H](CCCCN)NC(=O)[C@H](CCC(N)=O)NC(=O)[C@@H]2CCCN2C(=O)[C@@H]2CCCN2C(=O)[C@H]([C@@H](C)CC)NC(=O)[C@H](CO)NC(=O)[C@H](C)NC(=O)[C@H]([C@@H](C)O)NC(=O)[C@H](CCC(=O)O)NC1=O` [Example 30, Cyclo(-OctGly-Glu-Thr-Ala-Ser-Ile-Pro-Pro-Gln-Lys-Thr-^DSer-Val-)] (cyclo([Gly(octyl)]ETASIPPQKT[dS]V)), in assay [1], the hNE/PPE selectivity is on record as 4267 and the IC50 came to 51.2 µM. Moreover, the IC50 in assay [2] was determined as 0.012 µM. In assay [3], the hNE/hPr3 selectivity was 1192 and the IC50 stood at 14.3 µM.

As for `CCCCCCCC[C@@H]1NC(=O)[C@@H]2CCCN2C(=O)[C@H]2CCCN2C(=O)[C@H](CCOC)NC(=O)[C@H](CCCCN)NC(=O)[C@H](CCC(N)=O)NC(=O)[C@@H]2CCCN2C(=O)[C@@H]2CCCN2C(=O)[C@H]([C@@H](C)CC)NC(=O)[C@H](CO)NC(=O)[C@H](C)NC(=O)[C@H]([C@@H](C)O)NC(=O)[C@H](CCC(=O)O)NC1=O` [Example 1, Cyclo(-OctGly-Glu-Thr-Ala-Ser-Ile-Pro-Pro-Gln-Lys-hSer(Me)-^DPro-Pro-)] (cyclo([Gly(octyl)]ETASIPPQK[hSer](Me)[dP]P)), in assay [1], the hNE/PPE selectivity worked out at 129 and the IC50 worked out at 0.62 µM. Further, the IC50 in assay [2] was found to be 0.0048 µM. For the same molecule, in assay [3], the hNE/hPr3 selectivity came to 150 and the IC50 worked out at 0.72 µM.

Turning to `CCCCCCCC[C@@H]1NC(=O)[C@@H]2C[C@@H]3CCCC[C@@H]3N2C(=O)[C@H]2CCCN2C(=O)[C@H]([C@@H](C)O)NC(=O)[C@H](CCCCN)NC(=O)[C@H](CCC(N)=O)NC(=O)[C@@H]2CCCN2C(=O)[C@@H]2CCCN2C(=O)[C@H]([C@@H](C)CC)NC(=O)[C@H](CO)NC(=O)[C@H](C)NC(=O)[C@H]([C@@H](C)O)NC(=O)[C@H](CCC(=O)O)NC1=O` [Example 6, Cyclo(-OctGly-Glu-Thr-Ala-Ser-Ile-Pro-Pro-Gln-Lys-Thr-^DPro-Oic-)] (cyclo([Gly(octyl)]ETASIPPQKT[dP][Oic])), in assay [1], the hNE/PPE selectivity is 321 and the IC50 is 3.85 µM. The IC50 in assay [2] is 0.012 µM. Further, in assay [3], the hNE/hPr3 selectivity is recorded as 372 and the IC50 was 4.46 µM.

For `CC[C@H](C)[C@@H]1NC(=O)[C@H](CO)NC(=O)[C@H](C)NC(=O)[C@H]([C@@H](C)O)NC(=O)[C@H](CCC(=O)O)NC(=O)[C@H](CCNC(=O)[C@@H](N)Cc2ccccc2)NC(=O)[C@@H]2CCCN2C(=O)[C@H]2CCCN2C(=O)[C@H](Cc2ccc(O)cc2)NC(=O)[C@H](CCCCN)NC(=O)[C@H](CCC(N)=O)NC(=O)[C@@H]2CCCN2C(=O)[C@@H]2CCCN2C1=O` [Example 9, Cyclo(-Dab(Phe)-Glu-Thr-Ala-Ser-Ile-Pro-Pro-Gln-Lys-Tyr-^DPro-Pro-)] (cyclo([Dab](Phe)ETASIPPQKY[dP]P)), in assay [1], the hNE/PPE selectivity stood at 215 and the IC50 is 3.72 µM. Also, in assay [2], the IC50 was 0.0173 µM. Also, in assay [3], the hNE/hPr3 selectivity came out at 711 and the half-maximal inhibitory concentration (IC50) is 12.3 µM.

As to `CCCCCCCC[C@@H]1NC(=O)[C@@H]2CCCN2C(=O)[C@H]2CCCN2C(=O)[C@H]([C@@H](C)O)NC(=O)C[C@H](CCCCN)NC(=O)[C@H](CCC(N)=O)NC(=O)[C@@H]2CCCN2C(=O)[C@@H]2CCCN2C(=O)[C@H]([C@@H](C)CC)NC(=O)[C@H](CO)NC(=O)[C@H](C)NC(=O)[C@H]([C@@H](C)O)NC(=O)[C@H](CCC(=O)O)NC1=O` [Example 37, Cyclo(-OctGly-Glu-Thr-Ala-Ser-Ile-Pro-Pro-Gln-[H-β^3-H Lys-OH]-Thr-^DPro-Pro-)] (cyclo([Gly(octyl)]ETASIPPQ[β3hK]T[dP]P)), in assay [1], the hNE/PPE selectivity was determined as 212 and the IC50 stood at 8.8 µM. Moreover, the IC50 in assay [2] came out at 0.0415 µM. Further, in assay [3], the hNE/hPr3 selectivity is recorded as 371 and the IC50 worked out at 15.4 µM.

For the molecule `CCCCCCCC[C@@H]1NC(=O)[C@@H]2CCCN2C(=O)[C@H]2CCCN2C(=O)[C@H](CO)NC(=O)[C@H](CCCCN)NC(=O)[C@H](CCC(N)=O)NC(=O)[C@@H]2CCCN2C(=O)[C@@H]2CCCN2C(=O)[C@H]([C@@H](C)CC)NC(=O)[C@H](CO)NC(=O)[C@H](C)NC(=O)[C@H]([C@@H](C)O)NC(=O)[C@H](CCc2ccc(O)cc2)NC1=O` [Example 47] (cyclo([Gly(octyl)][hTyr]TASIPPQKS[dP]P)), in assay [1], the hNE/PPE selectivity stood at 357 and the IC50 came to 0.5 µM. The IC50 in assay [2] is 0.0014 µM. For the same molecule, in assay [3], the hNE/hPr3 selectivity is given as 714 and the IC50 was 1 µM.

`CCCCCCCC[C@@H]1NC(=O)[C@H](CCCCN)NC(=O)[C@@H](CO)NC(=O)[C@H]([C@@H](C)O)NC(=O)[C@H](CCCCN)NC(=O)[C@H](CCC(N)=O)NC(=O)[C@@H]2CCCN2C(=O)[C@@H]2CCCN2C(=O)[C@H]([C@@H](C)CC)NC(=O)[C@H](CO)NC(=O)[C@H](C)NC(=O)[C@H]([C@@H](C)O)NC(=O)[C@H](CCC(=O)O)NC1=O` [Example 32, Cyclo(-OctGly-Glu-Thr-Ala-Ser-Ile-Pro-Pro-GI n-Lys-Thr-^DSer-Lys-)] (cyclo([Gly(octyl)]ETASIPPQKT[dS]K)): in assay [1], the hNE/PPE selectivity turned out to be 4036 and the IC50 stood at 90 µM. In addition, the IC50 in assay [2] was determined as 0.0223 µM. Also, in assay [3], the hNE/hPr3 selectivity is reported as over 4484 and the IC50 is over 100 µM.

In the case of `CCCCCCCC[C@@H]1NC(=O)C[C@@H]2CCCN2C(=O)[C@H]2CCCN2C(=O)[C@H]([C@@H](C)O)NC(=O)[C@H](CCCCN)NC(=O)[C@H](CCC(N)=O)NC(=O)[C@@H]2CCCN2C(=O)[C@@H]2CCCN2C(=O)[C@H]([C@@H](C)CC)NC(=O)[C@H](CO)NC(=O)[C@H](C)NC(=O)[C@H]([C@@H](C)O)NC(=O)[C@H](CCC(=O)O)NC1=O` [Example 39] (cyclo([Gly(octyl)]ETASIPPQKT[dP][β3hP])), in assay [1], the hNE/PPE selectivity turned out to be 30310 and the IC50 turned out to be 87.9 µM. The IC50 in assay [2] is 0.0029 µM. In addition, in assay [3], the hNE/hPr3 selectivity is given as 24655 and the IC50 came out at 71.5 µM.

As for `CC[C@H](C)[C@@H]1NC(=O)[C@H](CO)NC(=O)[C@H](C)NC(=O)[C@H]([C@@H](C)O)NC(=O)[C@H](CCc2ccc(O)cc2)NC(=O)[C@H](CCCNC(=N)N)NC(=O)[C@@H]2CCCN2C(=O)[C@H]2CCCN2C(=O)[C@H]([C@@H](C)O)NC(=O)[C@H](CCCCN)NC(=O)[C@H](CCC(N)=O)NC(=O)[C@@H]2C[C@@H]3CCCC[C@@H]3N2C(=O)[C@@H]2CCCN2C1=O` [Example 42] (cyclo(R[hTyr]TASIP[Oic]QKT[dP]P)), in assay [1], the hNE/PPE selectivity was over 20833 and the IC50 was over 100 µM. Further, the IC50 in assay [2] is 0.0048 µM. Further, in assay [3], the hNE/hPr3 selectivity is reported as over 20833 and the IC50 was over 100 µM.

As for `CCCCCCCC[C@@H]1NC(=O)[C@H](Cc2ccc(O)cc2)NC(=O)[C@@H](CO)NC(=O)[C@H]([C@@H](C)O)NC(=O)[C@H](CCCCN)NC(=O)[C@H](CCC(N)=O)NC(=O)[C@@H]2CCCN2C(=O)[C@@H]2CCCN2C(=O)[C@H]([C@@H](C)CC)NC(=O)[C@H](CO)NC(=O)[C@H](C)NC(=O)[C@H]([C@@H](C)O)NC(=O)[C@H](CCC(=O)O)NC1=O` [Example 31, Cyclo(-OctGly-Glu-Thr-Ala-Ser-Ile-Pro-Pro-GI n-Lys-Thr-^DSer-Tyr-)] (cyclo([Gly(octyl)]ETASIPPQKT[dS]Y)), in assay [1], the hNE/PPE selectivity was determined as 2275 and the IC50 was 52.1 µM. In assay [2], the IC50 was 0.0229 µM. For the same molecule, in assay [3], the hNE/hPr3 selectivity was found to be 1432 and the IC50 is 32.8 µM.
